From US7300770B2, “Detection of microbe contamination on elastomeric articles” (Kimberly-Clark Worldwide, Inc., priority 2004, dated 2007)

Experiments:
[1] = system: aged chicken juice known to have a high bacterial count; experiment: Dye coating with or without TWEEN 80 on ceramic surface exposed to aged chicken juice; conditions: coating with TWEEN 80 surfactant; 80 mg/10 mL acetonitrile
Description: This solution was then used to coat a ceramic surface and allowed to air dry. […] After drying, a drop of aged chicken juice known to have a high bacterial count was placed on the each coating area. […] Furthermore, the addition of TWEEN® surfactant allowed for easy removal of the dye from the surface.

[2] = Acid-base reversibility of dye color on towel
P. aeruginosa = experiment: Titration of microorganisms with Reichardt's dye on cellulosic towel; conditions: Gram(-), 10^7 CFU/mL, 100 microliters
[3] = system: Herpes Simplex Virus 1 (HSV-1); experiment: Virus detection on Reichardt's dye-coated stickers; conditions: undiluted virus, 50 microliters, 3 minutes
vaccinia = conditions: undiluted virus, 50 microliters, 3 minutes
S. aureus [4] = experiment: Titration of serially diluted S. aureus suspensions on paper towel with dye
Description: 100 microliters of serially diluted S. aureus bacterial suspensions were placed onto a SCOTT® paper towel. Drops (10 microliters) of the Reichardt's dye in acetonitrile solution (40 milligrams/10 milliliters) were then pipetted onto each spot where the bacteria was placed. The dye solution changed color in less than 1 second. […] This was repeated on each spot corresponding to where different concentrations of bacteria were placed.

S. aureus [5] = experiment: Color change of Reichardt's dye-treated elastomeric gloves on contact with S. aureus; conditions: natural rubber latex glove; 160 mg dye/10 mL acetonitrile; 10^7 CFU/mL S. aureus
Description: Specifically, a solution of Reichardt's dye (160 milligrams per 10 milliliters of acetonitrile) was brushed onto a piece of a natural rubber latex glove (commercially available from Kimberly-Clark Corp.). A 100-microliter drop of 10^7 CFU/mL S. aureus was then applied to the surface of the glove and gently spread using a disposable pipette. Thereafter, a finger of a second natural rubber latex glove (commercially available from Kimberly-Clark Corp.) was dipped into a solution of Reichardt's dye (160 milligrams per 10 milliliters of acetonitrile). After drying, the fingers of the second glove were used to spread bacteria from the S. aureus droplet placed onto the piece of latex glove to another area on the latex piece.

vaginal fluid samples = experiment: Dye-coated stickers tested with vaginal fluid samples
Experimental: A sticker of each concentration was tested with normal, BV positive/pH positive, and BV negative/pH positive vaginal fluid samples. […] The three states of color change were easily distinguishable.

[6] = Longest wavelength peak absorption of dyes in three solvents (UV-Visible); assay type: physicochemical
Description: Reichardt's dye was used without further purification. […] Acetone, methanol, and acetonitrile solvents (HPLC grade) were obtained from Sigma-Aldrich Chemical Co., Inc. A Shimadzu UV-1601 UV-Visible Spectrophotometer (Shimadzu Corporation) was used to measure the longest wavelength peak absorption of the dyes in the range of 400 to 800 nanometers, dissolved in three different solvents, contained in quartz curvettes. The following table contains the results of the testing with the solvents on the left side and dyes across the top.

L. acidophilus = experiment: Titration of microorganisms with Reichardt's dye on cellulosic towel; conditions: Lactobacillus, Gram(+), 10^7 CFU/mL, 100 microliters; 160 mg/10 mL acetonitrile
aged raw chicken juice = experiment: Dye spray on aged raw chicken juice pattern and re-colorization with 1 N NaOH
aged chicken juice = experiment: Comparative dyes dropped onto aged chicken juice on paper towel; conditions: aged chicken juice on SCOTT paper towel
[7] = system: aged chicken juice (bacteria); experiment: Dye spray on hot plate: aged chicken juice versus canned chicken broth; conditions: 160 mg/10 mL isopropanol spray
Description: Canned chicken broth was utilized as a control that would contain chicken derived products such as lipids, protein, etc., to check for potential interferences from these naturally occurring materials. Freshly opened Swanson® Chicken Broth was pipette onto a hot plate surface and wiped dry with a SCOTT® towel. Juice from raw chicken that had been stored at room temperature for several days was also pipetted onto the hot plate and wiped dry as a positive control. […] Thus, in the case of chicken, the presence of microbes was clearly responsible for triggering the change in color, and not some other component, such as chicken fat or proteins.

measles = experiment: Virus detection on Reichardt's dye-coated stickers; conditions: undiluted virus, 50 microliters, 3 minutes
[8] = system: aged, pooled female urine; experiment: Bacterial quantification of aged pooled female urine by dye titration; conditions: 100 microliters urine
Description: Table 2 presents the volume of each dye solution required for the dye color to remain steady.

Polio virus type 1 = conditions: virus diluted serially in media; 50 microliters, 3 minutes
S. aureus [9] = experiment: Visual quantification of S. aureus on dye-treated paper, with blind study
Experimental: The color differences at lower concentrations were less distinct, particularly for the brush-coated sheet. A blind study was then conducted. […] Concentrations of these three drops were unknown to two of the experiment participants. After approximately 2 minutes, the drops were removed and blotted. Using the control regions, the concentrations of each sample were each visually estimated by these two persons. Both persons correctly estimated the concentration of the first sample to be 10^6 CFU/mL. […] The persons, however, incorrectly estimated the third sample to be 10^3 CFU/mL. […] The present inventors believe, however, that the concentration of the chromogen and uniformity of the coating may be readily selected to achieve accurate results at such low concentrations.

Influenza A = experiment: Virus detection on Reichardt's dye-coated stickers; conditions: undiluted virus, 50 microliters, 3 minutes
[10] = Color change of dye with bacterial cell-wall compounds on paper towel; parameters: species or system E. coli; Streptococcus faecalis; conditions: detoxified LPS, lipoteichoic acid
[11] = 100 microliters undiluted virus, 80 mg/10 mL acetonitrile with or without TWEEN 80
[12] = surfactant- and non-surfactant-containing solutions

Compound: [O-]c1c(-c2ccccc2)cc(-[n+]2c(-c3ccccc3)cc(-c3ccccc3)cc2-c2ccccc2)cc1-c1ccccc1 [Reichardt's dye, 4-(2,4,6-triphenylpyridinium-1-yl)-2,6-diphenylphenolate]
- Time to color change [1]: 20 to 30 s
- Effect of 1 N NaOH on the changed spots ([2]; after acetic acid or pH 2.0 buffer): rapid re-colorization
- Color change with acetic acid and pH 2.0 buffer ([2]; dried dye spots on towel): rapid color change
- Amount of Dye Required for Persistent Color (P. aeruginosa): 80 µL
- De-colorization of sticker [3]: stronger de-colorization of the sticker than that observed for Rhinovirus and Polio virus
- De-colorization of sticker (vaccinia): less than that observed for the other viruses
- Time for dye solution to change color (S. aureus [4]; 10 microliter drops, 40 mg/10 mL acetonitrile, on S. aureus spots): less than 1 second
- Correlation of titration with level of bacterial contamination (S. aureus [4]; drops added until color remained steady): good correlation
- Dye added until the color persisted (Rhinovirus; [11]): approximately 9 drops
- Discharge of dye color on virus spot (Rhinovirus; [12]): rapidly discharged
- Dye added until the color persisted (Polio virus; [11]): approximately 9 drops
- Discharge of dye color on virus spot (Polio virus; [12]): rapidly discharged
- Color change of glove piece and glove finger (S. aureus [5]): immediately changed
- Color change of dye-coated sticker (vaginal fluid samples; BV negative/pH positive sample): only faintly changed the color
- Color change of dye-coated sticker (vaginal fluid samples; BV positive/pH positive sample): next sharpest color change
- Color change of dye-coated sticker (vaginal fluid samples; normal vaginal fluid): sharpest color change
- Color in solvent ([6]; Acetone): (Bluish-green)
- Longest wavelength peak absorption ([6]; Acetone): 674 nm
- Color in solvent ([6]; Acetonitrile): (Blue)
- Longest wavelength peak absorption ([6]; Acetonitrile): 623 nm
- Color in solvent ([6]; Methanol): (red)
- Longest wavelength peak absorption ([6]; Methanol): 509 nm
- Amount of Dye Required for Persistent Color (L. acidophilus): 110 µL
- Effect of 1 N NaOH on area that changed color (aged raw chicken juice; drop of 1 N NaOH): re-colorization of that small spot
- Color change with aged chicken juice pre-mixed with 1 molar NaOH (aged raw chicken juice; equal proportions, 30 seconds): rapid color change
- Color change on dropping dye onto aged chicken juice (aged chicken juice): immediately changed color
- Color change on hot plate surface [7]: only the side containing the aged chicken juice (and thus bacteria) changed color
- De-colorization of sticker (measles): less than that observed for the other viruses
- Volume of dye solution required for the dye color to remain steady ([8]; 4 mg/ml dye solution in acetonitrile): 120 µL
- Volume of dye solution required for the dye color to remain steady ([8]; 16 mg/ml dye solution in acetonitrile): 30 µL
- Ten-fold dilution down to which stickers changed color (Polio virus type 1): 10^−6
- S. aureus concentration giving obvious color change (S. aureus [9]; Neenah Bond paper, 80 mg/10 mL acetonitrile, about 2 minutes): ≥ 10^5 CFU/mL
- Visually estimated concentration in blind study (S. aureus [9]; first sample, actual 10^6 CFU/mL, dip-coated sheet): 10^6 CFU/mL
- Visually estimated concentration in blind study (S. aureus [9]; second sample, actual 10^5 CFU/mL, brush-coated sheet): 10^5 CFU/mL
- Visually estimated concentration in blind study (S. aureus [9]; third sample, actual 10^4 CFU/mL, dip-coated sheet): 10^3 CFU/mL
- De-colorization of sticker (Influenza A): less than that observed for the other viruses
- Color change of dye with the other cell-wall compounds [10]: eventual color change
